From US20090247520A1, “INHIBITORS OF ANTIGEN RECEPTOR-INDUCED NF-kappa B ACTIVATION” (The Burnham Institute for Medical Research, priority 2008, published 2009)

Assays:
[1] = test system: retinoic acid-induced NF-κB activity; test: NF-κB reporter in HEK293-NF-κB-luc cells treated with all-trans-retinoic acid; format: cell-based; settings: 16 μM retinoic acid; CID-2858522 4 μM, IKK inhibitor 10 μM
Method: FIGS. 3 (A-F) HEK293-NF-κB-luc cells were pretreated with CID-2858522 (4 μM), IKK inhibitor, BMS-335541 (10 μM), or PKC inhibitor, Bisindolylmaleimide I (1 μM) for 2 hrs and then transfected with plasmids encoding CD4/TLR4 (A), CD40 (B), NOD1 (C), NOD2 (D), cIAP2-MALT1 (E), or XIAP and TAB (F), or pcDNA as control (compounds were not removed). After 48 hrs, luciferase activity was measured expressing data as fold increase relative to unstimulated cells (mean±SD; n=3). (G-H) HEK293-NF-κB-luc cells were pretreated with CID-2858522 (4 μM), or IKK inhibitor, BMS-335541 (10 μM) for 2 hrs and then cultured with 2 μM doxorubicin (G) or 16 μM retinoic acid (H). After 48 hrs, luciferase activity was measured as above.
Counter Screening and Secondary Assays. To counter-screen for inhibitors of the TNF pathway, HEK293-NFκB-Luc cells were seeded at 10^5 cells per well in 90 μL medium in white 96-well plates (Greiner Bio-One) and cultured overnight, before adding compounds (5 μL in medium) to cells. […] Luciferase activity was measured using Britelite kit (Perkin Elmer). […] Cells were cultured in medium containing CID-2858522 or other compounds and luciferase activity was measured 48 h later. […] Reactions were then initiated by addition of 50 μL 160 nM ATP (Sigma) in PBS and luciferase activity was measured 2 h later using a luminometer (LJL Biosystems, Sunnyvale, Calif.).

IKK-beta = molecular target: T1, IKK-beta (Homo sapiens, UniProt O14920); test: In vitro kinase assay IKK-beta (HTScan kit); format: biochemical; settings: CID-2858522 up to 8 μM; STS 0.5 μM; IKK inhibitor 10 μM
T1 construct: purchased Cell Signaling, Danvers, Mass
T1 sequence (O14920 whole entry): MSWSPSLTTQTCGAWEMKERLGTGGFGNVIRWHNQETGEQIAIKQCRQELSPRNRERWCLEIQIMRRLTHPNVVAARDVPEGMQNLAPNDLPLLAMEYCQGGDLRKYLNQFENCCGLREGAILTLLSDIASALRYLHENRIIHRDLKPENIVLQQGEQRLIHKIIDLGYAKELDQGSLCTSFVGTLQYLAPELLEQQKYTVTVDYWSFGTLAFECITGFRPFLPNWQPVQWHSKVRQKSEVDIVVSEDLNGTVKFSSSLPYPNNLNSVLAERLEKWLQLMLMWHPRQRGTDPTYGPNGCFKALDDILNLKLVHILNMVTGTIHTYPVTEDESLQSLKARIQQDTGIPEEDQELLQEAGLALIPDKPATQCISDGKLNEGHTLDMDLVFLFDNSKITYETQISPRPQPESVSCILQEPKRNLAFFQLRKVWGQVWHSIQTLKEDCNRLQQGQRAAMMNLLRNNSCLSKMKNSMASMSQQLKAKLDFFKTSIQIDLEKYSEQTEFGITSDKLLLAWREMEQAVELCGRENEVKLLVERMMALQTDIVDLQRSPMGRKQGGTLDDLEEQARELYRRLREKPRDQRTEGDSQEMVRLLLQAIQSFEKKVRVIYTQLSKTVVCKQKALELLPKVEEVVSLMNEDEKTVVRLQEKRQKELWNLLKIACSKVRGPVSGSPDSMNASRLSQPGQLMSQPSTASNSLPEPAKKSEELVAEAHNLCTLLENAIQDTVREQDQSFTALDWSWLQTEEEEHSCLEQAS
Method: CID-2858522 (8 μM) were tested in in vitro IKK beta (A), PKC beta […] or PKC theta (C) kinase assays using kits. STS (0.5 μM), IKK inhibitor (10 μM) and PKC inhibitor (1 μM) were used as positive controls.
In Vitro Kinase Assays. PKC-beta, PKC-theta and IKK-beta in vitro kinase assays were performed using the HTScan Kinase Assay Kit (Cell Signaling, Danvers, Mass.) according to manufacturer's protocols. A panel of >300 kinases was screened by Ambit, Inc.

[2] = test system: MALT1-caspase-8 interaction; test: PMA-induced MALT1-caspase-8 interaction in HEK293 cells; format: cell-based; settings: HEK293 over-expressing Flag-MALT1 and Caspase-8, PMA
Text: Caspase-8 plays an essential role in antigen receptor-mediated NF-κB activation. It was recently reported that MALT1 interacts with Caspase-8 and activates this protease upon antigen receptor activation. […] We then examined if CID-2858522 affected the pathway at this point. PMA induced significant MALT1-caspase-8 interaction in HEK293 cells over-expressing Flag-MALT1 and Caspase-8. […] The caspase-8 p43/41 processing intermediate was generated in HEK293 cells after PMA/Ion treatment. […] We then assessed the effects of CID-2858522 on PMA-induced proteolytic processing of c-FLIP, a Caspase-8-mediated event recently shown to be required for antigen receptor mediated NF-κB activation.

c-FLIP processing = test: PMA/Ionomycin-induced c-FLIP processing in HEK293 cells (immunoblot); format: cell-based; settings: CID-2858522 4 μM, PKC inhibitor 1 μM
Method: FIG. 7. CID-285852 inhibits IKKβ phosphorylation induced by PKC activators. (A) HEK293 cells were cultured in 0.5% FBS medium for 24 h and then treated with CID-2858522 (4 μM) or PKC inhibitor, Bisindolylmaleimide I (1 μM) for 2 hrs followed by PMA/Ionomycin (10 ng/mL; 5 ng/mL) for 2 h. Cell lysates were subjected to immunoprecipitation using anti-CARMA1 antibody and analyzed by immunoblotting with anti-phospho-CARMA1 antibody or anti-CARMA1 antibody. (B-E) HEK293 cells were transfected with plasmids encoding myc-CARMA1 in combination with plasmids encoding various other proteins including Caspase-8 (cys287ala) (B), HA-IKK-γ (C), HA-TAK1 (D), and TRAF6 (E). […] Cell lysates were immunoprecipated using anti-myc antibody and analyzed by immunoblotting using anti-Caspase8 (B), anti-HA (C,D), or anti-TRAF6 (E) antibodies. […] Cell lysates were normalized for protein content and analyzed by immunoblotting using anti-FLIP and anti-alpha-tubulin antibodies. […] Cell lysates were immunoprecipitated using anti-IKK-β and analyzed by immunoblotting using anti-phospho-IKK-β antibody or anti-IKK-β antibody (as loading control). […]
Caspase-8 plays an essential role in antigen receptor-mediated NF-κB activation. […] We then assessed the effects of CID-2858522 on PMA-induced proteolytic processing of c-FLIP, a Caspase-8-mediated event recently shown to be required for antigen receptor mediated NF-κB activation.

| SMILES | suppression of retinoic acid-induced NF-κB activity [1] | inhibition of IKK-beta kinase activity (IKK-beta) | inhibition of MALT1-caspase-8 interaction [2] | inhibition of c-FLIP processing (c-FLIP processing) |
| --- | --- | --- | --- | --- |
| Cc1ccc2nc(NCCN)c3ncc(C)n3c2c1 [BMS-345541, reference compound] | significantly suppressed | potent inhibition |  |  |
| CN(C)CCCn1cc(C2=C(c3c[nH]c4ccccc34)C(=O)NC2=O)c2ccccc21 [Bisindolylmaleimide I, reference compound] |  |  | inhibited | completely inhibited |
| Cc1cc2nc(NCCCO)n(CC(=O)c3cc(C(C)(C)C)c(O)c(C(C)(C)C)c3)c2cc1C [Compound 1, 2-(2-(3-Hydroxypropylamino)-5,6-dimethyl-1H-benzo[d]imidazol-1-yl)-1-(3,5-di-tert-butyl-4-hydroxyphenyl)ethanone] | did not inhibit | failed to suppress | not by CID-2858522 | not affected |
